Assays:
Type in all cases: cell-based, human
HUVECs = assay: Intracellular ROS by DCF fluorescence assay in HUVECs; settings: ANM 10 μM with HG (30 mM) for 48 h; HG alone 14.3-fold
Experimental: Cell viability was dermined by MTT assay. Percentage of viable cells were normalized with control cells (NG). B. Cellular senescence was determined by SA-β-gal activity assay as descrided in Materials and Methods. C., D. Total cell lysate was extracted and senescence-associated marker proteins including p16INK4A, p21CIP1, total and acetylated p53 and FoxO1 were measured by western blot analysis. E. Protein expression levels of SIRT-1 and phos-SIRT-1 were monitored by immunoblotting. […] The intracellular ROS level was quantified by utilizing DCFH-DA assay. G. Western blot analysis was performed to determine the protein expression levels of HO-1 and NQO-1. […] Cell lysates were mixed with luciferase reagents and quantified using an illuminometer. Relative ARE promoter activity was calculated by dividing the relative luciferace unit (RLU) of treated cells by RLU of untraeated cells (NG). Results expressed as mean ± SEM of three indipendent expriments. Statistical significance at ^ФP < 0.05 compared to NG vs. HG and *P < 0.05 compared to HG vs. samples.

HNDFs [1] = assay: Cytotoxicity of antcins against HNDFs (MTT assay); settings: Homo sapiens, 72 h, read-out: IC50 (50% inhibitory concentration) against HNDFs
Experimental: Figure 2 Effects of antcins on HG-induced senescence in HNDFs A. Type of antcins subjected to screen for potential anti-aging agents for skin aging. Names and chemical structures of the antcins are shown in the left and centrer column, respectively. The cytotoxic effects of antcins against HNDFs. Briefly, HNDFs were incubated with increasing concentrations (1, 5, 10 and 20 μM) of antcins including antcin A, antcin B, antcin C, antcin H, anticn K and antcin M for 72 h and the cell viability was determined by MTT assay. The 50% inhibitory concentrations (IC50) of each compound against HNDFs are shown in right column. B. Cells were incubated with antcin A (10 μM), antcin H (10 μM) and antcin M (10 μM) in the presence of HG (30 mM) for 72 h. Cellular senescence was determined by SA-β-gal activity. […] C. HNDFs were incubated with antcin A (10 μM), antcin H (10 μM) and antcin M (10 μM) in the presence of HG (30 mM) for 72 h. Senescence-associated marker proteins such as p16^INK4A, p21^CIP1 and SMP30 were determined by western blot analysis. D. To determine the effect of antcins on cell proliferation efficacy, HNDFs 5 × 10^4 cells/well in 6-well plates were incubated with antcins in the presence of HG (30 mM) for 72 h. Number of viable cells were quantified by the tryphan blue exclusion method. Results are expressed as mean ± S.E.M of three indipendent expriments. Statistical significance was et at ^ФP < 0.05 compared to NG vs HG and *P < 0.05 compared to HG vs. samples.
(§1) Human normal dermal fibroblasts (HNDFs, CCD966SK) and human umbilical vein endothelial cells (HUVECs) were obtained from the Bioresource Collection and Research Center (BCRC), Hsinchu, Taiwan. HNDFs were grown in MEM containing 10% FBS, 2 mM L-glutamine, 100 U/mL penicillin and streptomycin at 37°C in a fully humidified atmosphere of 5% CO2. Likewise, HUVECs were grown in M-199 medium supplemented with ECGS, heparin, 10% FBS and 100 U/mL penicillin and streptomycin at 37°C in a fully humidified atmosphere of 5% CO2. High-glucose treatment was performed by treating cells with 15 or 30 mM D-glucose (HG) for 24-72 h.
Cell viability was assessed by MTT colorimetric assay. Briefly, HNDFs (2 × 10^4 cells/well) or HUVECs (5 × 10^4 cells/well) were seeded in a 24-well culture plate. After treatment with HG (15 and 30 mM) in the presence or absence of samples for 24-72 h, culture media was withdrawn and incubated with MTT (1 mg/mL) in fresh medium for 2 h. The MTT formazan crystals were dissolved in 400 μL of DMSO and the samples were measured at 570 nm […] using an ELISA microplate reader (Bio-Tek Instruments, Winooski, VT). The percentage of cell viability (%) was calculated as (A570 of treated cells/A570 of untreated cells) × 100.

[2] = test system: Nrf2 transcriptional activity (ARE promoter); assay: ARE luciferase reporter assay in HNDFs; settings: 6 h
Experimental: ARE promoter activity was measured using a dual-luciferase reporter assay system (Promega, Madison, WI). […] Cells were then transfected with ARE plasmid (Qiagen, Hilden, Germany) using Lipofectamine 2000 (Invitrogen) and incubated for 36 h. […] The cell lysate was prepared and incubated with luciferase agents and the relative luminescence intensity was quantified using a spectrophotometer (Hidex Oy, Turku, Finland).

HNDFs [3] = assay: Cell proliferation, trypan blue exclusion assay in HG-induced HNDFs; settings: with HG (30 mM) for 72 h (Figure 2D)
Experimental: Cell proliferation was evaluated using trypan blue exclusion assay as described previously with minor modification. Cells were plated into 6-well plates at a density of 5 × 10^4 cells/well. After incubation overnight, cells were treated with test samples in the presence or absence of HG for 24-72 h. Cells exposed to 0.2% Trypan blue were then counted in a hemocytometer, and cells stained with Trypan blue were excluded. Percentage of viable cells was calculated based on the ratio of viable cells to total cell population in each well. The proliferation rate was calculated based on the number of viable cells in HG or sample-treated groups versus the NG-treated group.

[4] = test system: SIRT-1, SIRT-3 and SIRT-6 mRNA; assay: Q-PCR of SIRT genes in HNDFs; settings: ANM 10 μM, 72 h
Experimental: Total RNA was extracted from cultured HNDFs using Trizol Reagent (Thermo Fisher Scientific). Q-PCR analysis was performed using Applied Biosystems detection instruments and software. Forward and reverse primers (10 μM), and the working solution SYBR green, was used as a PCR master mix, under the following conditions: 96°C for 3 minutes followed by 40 cycles at 96°C for 1 minute, 50°C for 30 seconds and 72°C for 90 seconds. GAPDH was used as an internal standard to control for variability in amplification because of differences in starting mRNA concentrations. The copy number of each transcript was calculated as the relative copy number normalized by GAPDH copy number.

HNDFs [5] = assay: SA-β-gal senescence assay in HG-induced HNDFs
Experimental: as §1
Senescence-associated β-galactosidase (SA-β-gal) activity was determined in formaldehyde-fixed histochemical staining kit according to the manufacturer's instructions (Cell Signaling Technology, Danvers, […]). Briefly, cells were grown in 6-well plates at a density of 5 × 10^4 cells/well, and incubated with HG or test samples for 48 h (HUVECs) or 72 h (HNDFs). After incubation, cells were stained with SA-β-gal staining solution at pH 6.0 overnight and then the development of blue staining was observed and photographed under a bright-field microscope (Motic Electric Group, Xiamen, P.R. China).

SMILES: C=C(CCC(C)C1CCC2C3=C(C(=O)C(O)C21C)C1(C)CCC(O)C(C)C1CC3)C(C)C(=O)O (centres unmarked) [ANM, antcin M]
- intracellular ROS levels (HUVECs): 6.1 fold
- IC50 (HNDFs [1]): > 50 µM
- ARE luciferase activity ([2]; ANM 10 μM or NAC 100 μM alone, control 1-fold): 5.8 fold
- ARE luciferase activity ([2]; co-treated with HG (30 mM), ANM 10 μM or NAC 100 μM, HG alone 2.5-fold): 8.5 fold
- cell proliferation compared to the HG treatment group (HNDFs [3]): two-fold increase
- SIRT-1, SIRT-3 and SIRT-6 levels compared to the control group [4]: significantly increased
- SA-β-gal positive cells (HNDFs [5]; 10 μM with HG (30 mM) for 72 h, HG alone 9.59-fold (Figure 2B)): 1.51 fold
- SA-β-gal positive cells (HNDFs [5]; ANM 10 μM with HG (30 mM) for 72 h, HG alone 5.72-fold (Figure 4B)): 1.89 fold
